{"source": "patent US7943660B2", "about": "“Inhibitors of the LFA-1/ICAM-1 interaction and uses thereof” (Dominion Pharmakine S.L., priority 2005, dated 2011)", "key": {"[1]": {"system": "B16 melanoma (B16M) cell adhesion to VEGF-induced HSE cells mediated by LFA-1", "assay": "B16M cell adhesion to VEGF-treated hepatic sinusoidal endothelial (HSE) cells in vitro", "type": "cell-based, murine", "details": "HSE pre-incubated with 10 μg/ml HC0303 30 min prior to 10 ng/ml rmVEGF for 8 hours; FIG. 5; P<0.001", "method": "(§1) Time-dependent adhesion assays was carried out on a quantitative basis according to previous validated bioassays (Vidal-Vanaclocha et al., Cancer Research, 1994, 54(10):2667-72). For tumor cell pre-labelling, they were allowed to accumulate the non-fluorescent sterase substrate BCECF-AM and to hydrolyze it to its fluorescent product BCECF which becomes trapped inside living cells. To do this, 50 μg of BCECF-AM were diluted in dry DMSO (5 μl) and DME medium until […] (40 μg/ml).\n(§2) Tumor cells (5×10^6) were incubated in BCECF-AM solution at 37° C. for 30 min. After gently washing, tumor cells were resuspended in fresh medium (DMEM without phenol red) at a concentration of 2×10^6 cells/ml.\n(§3) Twenty-four hours post-plating, primary cultured hepatic sinusoidal endothelial (HSE) cells were also used for adhesion assay. To determine the basal autofluorescence per well, plates were read on a fluorometric microplate reader (Multiskan Ascent, Thermo Labsystems) using 485/22 nm excitation and the 530/25 nm emission filter. Then, 2×10^5 labeled tumor cells were added to each well of HSE cells and to collagen pre-coated control wells.\n(§4) However, in order to determine the exact number of cells in each well, co-culture plates were read for a second time. Then, plates were incubated at 37° C. […]"}, "Co26-CC cells": {"system": "Co26-CC cells", "assay": "Viability of Co26-CC cells after in vitro pretreatment", "type": "cell-based, murine", "details": "in vitro cancer cell pretreatment with HC0303"}, "[2]": {"system": "51b murine colon carcinoma (51b-CC) cell adhesion to HSE cells", "assay": "51b colon carcinoma cell adhesion to HSE cells", "type": "cell-based", "details": "51b cells, FIG. 6A", "method": "as §1, §2, §3, §4"}, "[3]": {"system": "Human peripheral blood lymphocyte (PBL) adhesion to immobilized human recombinant ICAM-1", "assay": "Human PBL adhesion assay to immobilized recombinant human ICAM-1", "type": "cell-based", "details": "PBLs 100 ng/ml PMA 30 min, then HC0303 20 μg/5×10^5 cells for 30 min; FIG. 7; P<0.01", "method": "Ninety six-well plates were coated with 2 μg/ml recombinant human ICAM-1 (R&D Systems, Minneapolis, Minn.) at 4° C. overnight. Nonspecific binding sites on plastic were blocked by treating the wells with 100 μl of PBS containing 0.5% BSA for 2 h at room temperature. Isolated human PBLs were incubated with either basal medium or 100 ng/ml PMA for 30 min. Then, PBLs were BCECF-AM-labeled and after washing, the compound HC0303 (20 μg/5×10^5 cells) was added for 30 min.\nFor adhesion assay, PBLs (5×10^4 per well) were added to quadruplicate wells. Then, plates were incubated for 1 hour at 37° C. before unattached cells were removed by washing three times with fresh medium. The number of adhering cells was determined using the same quantitative fluorescence measurement system as above described.\nThat this anti-adhesive effect of compound HC0303 is due to LFA-1/ICAM-1 interaction blockade was further confirmed along a lymphocyte adhesion assay to immobilized ICAM-1 substrate. Cultured PBLs were incubated with either basal medium or 100 ng/ml PMA for 30 min. Then, PBLs were BCECF-AM-labeled and after washing, compound HC0303 (20 μg/5×10^5 cells) was added for 30 minutes prior to the adhesion assay to a ICAM-1-coated plate. […] The results are the mean ±SD of three separate experiments, each in sextuplicate (n=18). […]"}}, "data": [{"smiles": "CC[C@H](C)C(OCc1ccccc1)[C@@H]1[C@H]([N+](=O)[O-])[C@H](c2ccccc2)N[C@]1(C)C(=O)NCCC(=O)O", "note": "(stereo partly drawn) [HC0303, 3-[(2S,3R,4S,5S)-3-[(2S)-1-(Benzyloxy)-2-methylbutyl]-2-methyl-4-nitro-5-phenylpyrrolidine-2-carboxamido]propanoic acid]", "values": [{"measurement": "B16M cell adhesion increase produced in response of VEGF", "setting": "[1]", "result": "abrogated"}, {"measurement": "Cell viability of Co26-CC cells", "setting": "Co26-CC cells", "result": "without Affecting Cell Viability"}, {"measurement": "PMA-induced cancer cell adhesion to HSE cells", "setting": "[2]; 100 ng/ml PMA 30 min, then HC0303 20 μg/5×10^5 cells for 30 min, P<0.01", "result": "significantly decreased"}, {"measurement": "adhesion to untreated HSE cells (no PMA)", "setting": "[2]; HC0303 20 μg/5×10^5 cells for 30 min", "result": "did not affect"}, {"measurement": "PMA-induced adhesion of PBLs to immobilized human recombinant ICAM-1", "setting": "[3]", "result": "significantly decreased"}]}]}
